From patent publication US6548494B1, “Tricyclic inhibitors of poly(ADP-ribose) polymerases” (Agouron Pharmaceuticals, Inc., priority 1999, dated 2003)
Values joined by “and” are separate entries in the source; they are usually repeats but may differ in a detail not shown here. Equal entries are not always repeated.

How the values were obtained:
purified PARP protein = purified PARP protein (Homo sapiens, UniProt P09874); test: PARP enzyme inhibition assay; type: biochemical; conditions: 20 nM purified PARP (5 nM for tight-binding inhibitors), 500 μM NAD+, 25° C.; several values in one cell = repeat determinations; read-out: Inhibition Constant Ki
purified PARP protein, sequence (P09874 whole entry): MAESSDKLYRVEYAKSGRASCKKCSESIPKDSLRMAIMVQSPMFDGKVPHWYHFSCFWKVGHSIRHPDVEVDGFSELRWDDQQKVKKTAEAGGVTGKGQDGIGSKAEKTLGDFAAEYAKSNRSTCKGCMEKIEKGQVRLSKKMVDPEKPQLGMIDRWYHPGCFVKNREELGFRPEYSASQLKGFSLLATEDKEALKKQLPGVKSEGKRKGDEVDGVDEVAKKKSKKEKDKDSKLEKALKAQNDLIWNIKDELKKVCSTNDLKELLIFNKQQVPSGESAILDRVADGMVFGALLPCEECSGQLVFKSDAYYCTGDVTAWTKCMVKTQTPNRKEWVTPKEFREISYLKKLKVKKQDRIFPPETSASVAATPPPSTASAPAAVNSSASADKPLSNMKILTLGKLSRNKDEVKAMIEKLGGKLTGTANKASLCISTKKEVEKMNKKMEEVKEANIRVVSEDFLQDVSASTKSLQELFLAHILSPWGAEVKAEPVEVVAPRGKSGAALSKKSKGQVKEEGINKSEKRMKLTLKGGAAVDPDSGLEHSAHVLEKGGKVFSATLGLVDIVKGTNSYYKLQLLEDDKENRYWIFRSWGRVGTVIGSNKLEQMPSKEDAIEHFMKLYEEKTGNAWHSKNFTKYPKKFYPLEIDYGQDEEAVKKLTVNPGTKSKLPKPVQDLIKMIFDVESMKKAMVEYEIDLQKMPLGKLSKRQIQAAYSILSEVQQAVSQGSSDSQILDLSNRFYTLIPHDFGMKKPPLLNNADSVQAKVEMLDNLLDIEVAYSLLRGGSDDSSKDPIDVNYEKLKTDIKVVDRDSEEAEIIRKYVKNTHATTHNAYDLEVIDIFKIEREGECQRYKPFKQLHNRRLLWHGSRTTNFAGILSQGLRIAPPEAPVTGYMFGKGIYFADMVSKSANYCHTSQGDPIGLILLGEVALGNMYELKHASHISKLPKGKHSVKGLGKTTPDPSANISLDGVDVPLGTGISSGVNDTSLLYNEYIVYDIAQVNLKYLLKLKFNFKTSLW

Compound	Ki (purified PARP protein)	melting point
CCOC(OCC)c1ccc(-c2nc3cc(F)cc4c3n2CCNC4=O)cc1 [Example 79, 1-(4-Diethoxymethyl-phenyl)-4-fluoro-8,9-dihydro-7H-2,7,9a-triaza-benzo[cd]azulen-6-one]	11 nM	219 to 221 °C
COC(=O)CCCc1cc2cccc3c2n1CCNC3=O [Example 161]	116 nM	175 to 176 °C
O=C1NCCn2c(-c3ccc(-c4nn[nH]n4)cc3)nc3cccc1c32 [Example 136, 1-[4-(2H-Tetrazol-5-yl)-phenyl]-8,9-dihydro-7H-2,7,9a-triaza-benzo[cd]azulen-6-one]	96 nM	> 290 °C (dec.)
CN1CCN(C(=O)c2nc3cccc4c3n2CCNC4=O)CC1 [Example 115, 1-(4-Methyl-piperazine-1-carbonyl)-8,9-dihydro-7H-2,7,9a-triaza-benzo[cd]azulen-6-one]	116 nM	311 to 316 °C (dec.)
O=C1NCCn2c(-c3ccc(-c4c[nH]cn4)cc3)nc3cccc1c32 [Example 147, 1-[4-(1H-Imidazol-4-yl)-phenyl]-8,9-dihydro-7H-2,7,9a-triaza-benzo[cd]azulen-6-one]	4 nM	> 198 °C (dec.)
O=C1NCCn2c(C(=O)N3CCOCC3)nc3cccc1c32 [Example 113, 1-(Mompholine-4-carbonyl)-8,9-dihydro-7H-2,7,9a-triaza-benzo[cd]azulen-6-one]	24 nM	271 to 274 °C (dec.)
CC(C)Cc1nc2cccc3c2n1CCNC3=O [Example 23, 1-Isobutyl-8,9-dihydro-7H-2,7,9a-triaza-benzo[cd]azulen-6-one]	17.3 nM	211 to 212 °C
O=C1NCCn2c(C(=O)NCc3ccccc3)nc3cccc1c32 [Example 110, 6-Oxo-6,7,8,9-tetrahydro-2,7,9a-triaza-benzo[cd]azulen-1-carboxylic Acid Benzylamide]	18 nM	247 to 250 °C
N#Cc1c(-c2ccc(F)cc2)n2c3c(cccc13)C(=O)NCC2 [Example 91, 6-(4-Fluoro-phenyl)-1-oxo-1,2,3,4-tetrahydro-[1,4]diazepino[6,7,1-hi]indole-7-carbonitrile]	54 nM	248 to 250 °C
NC(=O)c1c(-c2ccc(F)cc2)n2c3c(cccc13)C(=O)NCC2 [Example 92, 6-(4-Fluoro-phenyl)-1-oxo-1,2,3,4-tetrahydro-[1,4]diazepino[6,7,1-hi]indole-7-carboxylic Acid Amide]	200 nM	287 to 289 °C
O=C1NCCn2c(-c3cccc(CN4CCCC4)c3)nc3cccc1c32 [Example 60, 1-(3-Pyrrolidin-1-ylmethyl-phenyl)-8,9-dihydro-7H-2,7,9a-triaza-benzo[cd]azulen-6-one]	6.2 nM	92 °C (dec.)
O=C1NCCn2c(-c3ccc(CN4CCCC4)cc3)cc3cccc1c32 [Example 84, 6-(4-Pyrrolidin-1-ylmethyl-phenyl)-3,4-dihydro-2H-[1,4]diazepino[6,7,1-hi]indol-1-one]	6.5 nM and 7.1 nM	146 to 148 °C
COC(OC)c1cccc(-c2nc3cccc4c3n2CCNC4=O)c1 [Example 31a, 1-(3-Dimethoxymethyl-phenyl)-8,9-dihydro-7H-2,7,9a-triaza-benzo[cd]azulen-6-one]	22 nM	182 to 185 °C
O=C1NCCn2c(-c3ccc(CCOC4CCCCO4)cc3)nc3cccc1c32 (stereo not drawn) [Example 125, 1-{4-[2-(Tetrahydro-pyran-2-yloxy)-ethyl]-phenyl}-8,9-dihydro-7H-2,7,9a-triaza-benzo[cd]azulen-6-one]	11 nM	189 to 190 °C
O=C1NCCn2c(-c3ccc(OCCN4CCCC4)cc3)nc3cccc1c32 [Example 123, 1-[4-(2-Pyrrolidin-1-yl-ethoxy)-phenyl]-8,9-dihydro-7H-2,7,9a-triaza-benzo[cd]azulen-6-one]	9 nM	172 to 175 °C
